Values after ≈ are worked out from the molar mass of the structure shown.
Assays:
Streptococcus pneumoniae [1] = assay: Antibacterial activity against Streptococcus pneumoniae ATCC 49619 isolated from respiratory tract infected patients after 20 to 24 hrs by broth microdilution method; format: functional
Streptococcus pneumoniae [2] = assay: Antibacterial activity against penicillin-susceptible Streptococcus pneumoniae ATCC 49619 isolated from respiratory tract infected patients after 20 to 24 hrs by broth microdilution method; format: functional
Streptococcus pneumoniae [3] = assay: Antibacterial activity against penicillin-intermediate Streptococcus pneumoniae ATCC 49619 isolated from respiratory tract infected patients after 20 to 24 hrs by broth microdilution method; format: functional
Streptococcus pneumoniae [4] = assay: Antibacterial activity against penicillin-resistant Streptococcus pneumoniae ATCC 49619 isolated from respiratory tract infected patients after 20 to 24 hrs by broth microdilution method; format: functional
Streptococcus pneumoniae [5] = assay: Antibacterial activity against Streptococcus pneumoniae ATCC 49619 isolated from respiratory tract infected patients assessed as susceptible isolates after 20 to 24 hrs by broth microdilution method; format: functional
Streptococcus pneumoniae [6] = assay: Antibacterial activity against penicillin-susceptible Streptococcus pneumoniae ATCC 49619 isolated from respiratory tract infected patients assessed as susceptible isolates after 20 to 24 hrs by broth microdilution method; format: functional
Streptococcus pneumoniae [7] = assay: Antibacterial activity against penicillin-intermediate Streptococcus pneumoniae ATCC 49619 isolated from respiratory tract infected patients assessed as susceptible isolates after 20 to 24 hrs by broth microdilution method; format: functional
Streptococcus pneumoniae [8] = assay: Antibacterial activity against penicillin-resistant Streptococcus pneumoniae ATCC 49619 isolated from respiratory tract infected patients assessed as susceptible isolates after 20 to 24 hrs by broth microdilution method; format: functional
Streptococcus pneumoniae [9] = assay: Antibacterial activity against Streptococcus pneumoniae ATCC 49619 isolated from respiratory tract infected patients assessed as resistant isolates after 20 to 24 hrs by broth microdilution method; format: functional
Streptococcus pneumoniae [10] = assay: Antibacterial activity against penicillin-susceptible Streptococcus pneumoniae ATCC 49619 isolated from respiratory tract infected patients assessed as resistant isolates after 20 to 24 hrs by broth microdilution method; format: functional
Streptococcus pneumoniae [11] = assay: Antibacterial activity against penicillin-intermediate Streptococcus pneumoniae ATCC 49619 isolated from respiratory tract infected patients assessed as resistant isolates after 20 to 24 hrs by broth microdilution method; format: functional
Streptococcus pneumoniae [12] = assay: Antibacterial activity against penicillin-resistant Streptococcus pneumoniae ATCC 49619 isolated from respiratory tract infected patients assessed as resistant isolates after 20 to 24 hrs by broth microdilution method; format: functional
Haemophilus influenzae [13] = assay: Antibacterial activity against Haemophilus influenzae […] isolated from respiratory tract infected patients after 20 to 24 hrs by broth microdilution method; format: functional; settings: ATCC 49247
Haemophilus influenzae [14] = assay: Antibacterial activity against beta lactamase-positive Haemophilus influenzae […] isolated from respiratory tract infected patients after 20 to 24 hrs by broth microdilution method; format: functional; settings: ATCC 49247
Haemophilus influenzae [15] = assay: Antibacterial activity against beta lactamase-negative Haemophilus influenzae […] isolated from respiratory tract infected patients after 20 to 24 hrs by broth microdilution method; format: functional; settings: ATCC 49247
Haemophilus influenzae [16] = assay: Antibacterial activity against Haemophilus influenzae […] isolated from respiratory tract infected patients assessed as susceptible isolates after 20 to 24 hrs by broth microdilution method; format: functional, ATCC 49247
Haemophilus influenzae [17] = assay: Antibacterial activity against beta lactamase-positive Haemophilus influenzae […] isolated from respiratory tract infected patients assessed as susceptible isolates after 20 to 24 hrs by broth microdilution method; format: functional, ATCC 49247
Haemophilus influenzae [18] = assay: Antibacterial activity against beta lactamase-negative Haemophilus influenzae […] isolated from respiratory tract infected patients assessed as susceptible isolates after 20 to 24 hrs by broth microdilution method; format: functional
Haemophilus influenzae [19] = assay: Antibacterial activity against Haemophilus influenzae […] isolated from respiratory tract infected patients assessed as resistant isolates after 20 to 24 hrs by broth microdilution method; format: functional, ATCC 49247
Haemophilus influenzae [20] = assay: Antibacterial activity against beta lactamase-positive Haemophilus influenzae […] isolated from respiratory tract infected patients assessed as resistant isolates after 20 to 24 hrs by broth microdilution method; format: functional, ATCC 49247
Haemophilus influenzae [21] = assay: Antibacterial activity against beta lactamase-negative Haemophilus influenzae […] isolated from respiratory tract infected patients assessed as resistant isolates after 20 to 24 hrs by broth microdilution method; format: functional, ATCC 49247
Moraxella catarrhalis = assay: Antibacterial activity against Moraxella catarrhalis isolated from respiratory tract infected patients after 20 to 24 hrs by broth microdilution method; format: functional

Row | Structure (SMILES) | MIC50 (Streptococcus pneumoniae [1]) [µg/mL] | MIC90 (Streptococcus pneumoniae [1]) [µg/mL] | MIC50 (Streptococcus pneumoniae [2]) [µg/mL] | MIC90 (Streptococcus pneumoniae [2]) [µg/mL] | MIC50 (Streptococcus pneumoniae [3]) [µg/mL] | MIC90 (Streptococcus pneumoniae [3]) [µg/mL] | MIC50 (Streptococcus pneumoniae [4]) [µg/mL] | MIC90 (Streptococcus pneumoniae [4]) [µg/mL] | Activity (Streptococcus pneumoniae [5]) [%] | Activity (Streptococcus pneumoniae [6]) [%] | Activity (Streptococcus pneumoniae [7]) [%] | Activity (Streptococcus pneumoniae [8]) [%] | Activity (Streptococcus pneumoniae [9]) [%] | Activity (Streptococcus pneumoniae [10]) [%] | Activity (Streptococcus pneumoniae [11]) [%] | Activity (Streptococcus pneumoniae [12]) [%] | MIC50 (Haemophilus influenzae [13]) [µg/mL] | MIC90 (Haemophilus influenzae [13]) [µg/mL] | MIC50 (Haemophilus influenzae [14]) [µg/mL] | MIC90 (Haemophilus influenzae [14]) [µg/mL] | also measured
1 | CO/N=C(\C(=O)N[C@@H]1C(=O)N2C(C(=O)O)=C(COC(N)=O)CS[C@H]12)c1ccco1 [CEFUROXIME] | ≤ 0.5 | 8 (≈ 18.9 µM) | ≤ 0.5 | ≤ 0.5 | ≤ 0.5 | 4 (≈ 9.43 µM) | 8 (≈ 18.9 µM) | 16 (≈ 37.7 µM) | 78.2 | 99.9 | 74 | 0 | 18.7 | 0 | 12.7 | 99.2 | 1 (≈ 2.36 µM) | 2 (≈ 4.71 µM) | 1 (≈ 2.36 µM) | 2 (≈ 4.71 µM) | MIC50 (Haemophilus influenzae [15]): 1 µg/mL (≈ 2.36 µM); MIC90 (Haemophilus influenzae [15]): 2 µg/mL (≈ 4.71 µM); Activity (Haemophilus influenzae [16]): 97.6%; Activity (Haemophilus influenzae [17]): 96.3%; Activity (Haemophilus influenzae [18]): 98%; Activity (Haemophilus influenzae [19]): 0.3%; Activity (Haemophilus influenzae [20]): 0.7%; Activity (Haemophilus influenzae [21]): 0.2%; MIC50 (Moraxella catarrhalis): 1 µg/mL (≈ 2.36 µM); MIC90 (Moraxella catarrhalis): 2 µg/mL (≈ 4.71 µM)
2 | CC[C@H]1OC(=O)[C@H](C)C(=O)[C@H](C)[C@@H](O[C@@H]2O[C@H](C)C[C@H](N(C)C)[C@H]2O)[C@](C)(OC)C[C@@H](C)C(=O)[C@H](C)[C@H]2N(CCCCn3cnc(-c4cccnc4)c3)C(=O)O[C@]12C [TELITHROMYCIN] | ≤ 0.12 | 0.5 (≈ 0.616 µM) | ≤ 0.12 | ≤ 0.12 | ≤ 0.12 | 0.5 (≈ 0.616 µM) | 0.5 (≈ 0.616 µM) | 1 (≈ 1.23 µM) | 99.4 | 99.8 | 100 | 97.2 | 0.1 | 0.1 | 0 | 0 | 2 (≈ 2.46 µM) | 4 (≈ 4.93 µM) | 2 (≈ 2.46 µM) | 4 (≈ 4.93 µM) | MIC50 (Haemophilus influenzae [15]): 2 µg/mL (≈ 2.46 µM); MIC90 (Haemophilus influenzae [15]): 4 µg/mL (≈ 4.93 µM); Activity (Haemophilus influenzae [16]): 96.4%; Activity (Haemophilus influenzae [17]): 97%; Activity (Haemophilus influenzae [18]): 96.1%; Activity (Haemophilus influenzae [19]): 0.7%; Activity (Haemophilus influenzae [20]): 0.8%; Activity (Haemophilus influenzae [21]): 0.7%; MIC50 (Moraxella catarrhalis): ≤ 0.12 µg/mL; MIC90 (Moraxella catarrhalis): ≤ 0.12 µg/mL

— ChEMBL document CHEMBL1151433, “National and regional assessment of antimicrobial resistance among community-acquired respiratory tract pathogens identified in a 2005-2006 U.S. Faropenem surveillance study” (2007)
